According to patent US6096930A, “Herbicidal cyclohexane-1,3-dione derivatives and their preparation process” (Korea Research Institute of Chemical Technology, priority 1994, dated 2000):

Assays:
Assay type in all cases: in vivo
[1] = system: ABUTH; test: Herbicidal activity, upland test, pre-emergence
Procedure: (§1) The sterilized sandy loam soil is filled in test pot having a surface area of 348 cm^2 for upland test conditions or 115 cm^2 for paddy test species were planted in furrows.
(§2) For the pre-emergent tests, were sprayed on the soil one day after planting test compound in a mixture of acetone and 7 ml of the water containing up to 0.1% Tween 20.
(§3) The concentration of the test compound in solution was varied to give a range of application rates, generally 4.0 kg/ha and submultiples thereof. The pots were placed in a greenhouse and watered regularly at the soil surface for 21 days and herbicidal effects were visually rated by a percent control.
(§4) The herbicidal activity data were taken visually by percent control, wherein 0 signifies no herbicidal effect and 100 signifies complete kill.

[2] = system: AESIN; test: Herbicidal activity, upland test, pre-emergence
Procedure: as §1, §2, §3, §4

[3] = system: BROJA; test: Herbicidal activity, upland test, pre-emergence
Procedure: as §1, §2, §3, §4

[4] = system: DIGSA; test: Herbicidal activity, upland test, pre-emergence
Procedure: as §1, §2, §3, §4

[5] = system: ECHOR; test: Herbicidal activity, upland test, pre-emergence
Procedure: as §1, §2, §3, §4

[6] = system: GLXMX; test: Herbicidal activity, upland test, pre-emergence
Procedure: as §1, §2, §3, §4

[7] = system: GOSHI; test: Herbicidal activity, upland test, pre-emergence
Procedure: as §1, §2, §3, §4

[8] = system: ORYSA; test: Herbicidal activity, upland test, pre-emergence
Procedure: as §1, §2, §3, §4

[9] = system: PANDI; test: Herbicidal activity, upland test, pre-emergence
Procedure: as §1, §2, §3, §4

[10] = system: SOLNI; test: Herbicidal activity, upland test, pre-emergence
Procedure: as §1, §2, §3, §4

[11] = system: SORBI; test: Herbicidal activity, upland test, pre-emergence
Procedure: as §1, §2, §3, §4

[12] = system: TRZAW; test: Herbicidal activity, upland test, pre-emergence
Procedure: as §1, §2, §3, §4

[13] = system: ZEAMX; test: Herbicidal activity, upland test, pre-emergence
Procedure: as §1, §2, §3, §4

[14] = system: ABUTH; test: Herbicidal activity, upland test, post-emergence
Excerpt: as §1
(§5) The pots for the post-emergent tests were placed in a greenhouse and watered for 9~14 days, then the foliage of test plants was sprayed with a solution of the test compound in a mixture of acetone and water containing a small amount of Tween 20.
(§6) After spraying the plants were kept for one day, then watered regularly for 14 to 21 days, and herbicidal activity data were recorded.
as §4

[15] = system: AESIN; test: Herbicidal activity, upland test, post-emergence
Excerpt: as §1, §5, §6, §4

[16] = system: BROJA; test: Herbicidal activity, upland test, post-emergence
Excerpt: as §1, §5, §6, §4

[17] = system: DIGSA; test: Herbicidal activity, upland test, post-emergence
Excerpt: as §1, §5, §6, §4

[18] = system: ECHOR; test: Herbicidal activity, upland test, post-emergence
Excerpt: as §1, §5, §6, §4

[19] = system: GLXMX; test: Herbicidal activity, upland test, post-emergence
Excerpt: as §1, §5, §6, §4

[20] = system: GOSHI; test: Herbicidal activity, upland test, post-emergence
Excerpt: as §1, §5, §6, §4

[21] = system: ORYSA; test: Herbicidal activity, upland test, post-emergence
Excerpt: as §1, §5, §6, §4

[22] = system: PANDI; test: Herbicidal activity, upland test, post-emergence
Excerpt: as §1, §5, §6, §4

[23] = system: SOLNI; test: Herbicidal activity, upland test, post-emergence
Excerpt: as §1, §5, §6, §4

[24] = system: SORBI; test: Herbicidal activity, upland test, post-emergence
Excerpt: as §1, §5, §6, §4

[25] = system: TRZAW; test: Herbicidal activity, upland test, post-emergence
Excerpt: as §1, §5, §6, §4

[26] = system: ZEAMX; test: Herbicidal activity, upland test, post-emergence
Excerpt: as §1, §5, §6, §4

`CCCC(=NOC)C1=C(O)CC(c2c(C)c(C)c3c(c2C)CC(C)(C)C3)CC1=O` (centres unmarked) [Compound 6] was tested, and the “Herbicidal activity, ABUTH” value ([1]; 0.016 kg/ha) was 0 % inhibition, the “Herbicidal activity, ABUTH” value ([1]; 0.063 kg/ha) was 0 % inhibition and the “Herbicidal activity, ABUTH” value ([1]; 1.000 kg/ha) was 0 % inhibition. For the same molecule, the “Herbicidal activity, ABUTH” value ([1]; 1.250 kg/ha) was 0 % inhibition, the “Herbicidal activity, AESIN” value ([2]; 0.016 kg/ha) was 0 % inhibition and the “Herbicidal activity, AESIN” value ([2]; 0.063 kg/ha) was 0 % inhibition. The “Herbicidal activity, AESIN” value ([2]; 1.000 kg/ha) was 0 % inhibition, the “Herbicidal activity, AESIN” value ([2]; 1.250 kg/ha) was 0 % inhibition and the “Herbicidal activity, BROJA” value ([3]; 0.016 kg/ha) was 0 % inhibition. For the same molecule, the “Herbicidal activity, BROJA” value ([3]; 0.063 kg/ha) was 0 % inhibition, the “Herbicidal activity, BROJA” value ([3]; 1.000 kg/ha) was 80 % inhibition and the “Herbicidal activity, BROJA” value ([3]; 1.250 kg/ha) was 40 % inhibition. For the same molecule, the “Herbicidal activity, DIGSA” value ([4]; 0.016 kg/ha) was 0 % inhibition, the “Herbicidal activity, DIGSA” value ([4]; 0.063 kg/ha) was 0 % inhibition and the “Herbicidal activity, DIGSA” value ([4]; 1.000 kg/ha) was 100 % inhibition. The “Herbicidal activity, DIGSA” value ([4]; 1.250 kg/ha) was 60 % inhibition, the “Herbicidal activity, ECHOR” value ([5]; 0.016 kg/ha) was 0 % inhibition and the “Herbicidal activity, ECHOR” value ([5]; 0.063 kg/ha) was 0 % inhibition. The “Herbicidal activity, ECHOR” value ([5]; 1.000 kg/ha) was 100 % inhibition, the “Herbicidal activity, ECHOR” value ([5]; 1.250 kg/ha) was 50 % inhibition and the “Herbicidal activity, GLXMX” value ([6]; 0.016 kg/ha) was 0 % inhibition. The “Herbicidal activity, GLXMX” value ([6]; 0.063 kg/ha) was 0 % inhibition, the “Herbicidal activity, GLXMX” value ([6]; 1.000 kg/ha) was 0 % inhibition and the “Herbicidal activity, GLXMX” value ([6]; 1.250 kg/ha) was 0 % inhibition. For the same molecule, the “Herbicidal activity, GOSHI” value ([7]; 0.016 kg/ha) was 0 % inhibition, the “Herbicidal activity, GOSHI” value ([7]; 0.063 kg/ha) was 0 % inhibition and the “Herbicidal activity, GOSHI” value ([7]; 1.000 kg/ha) was 0 % inhibition. The “Herbicidal activity, GOSHI” value ([7]; 1.250 kg/ha) was 0 % inhibition, the “Herbicidal activity, ORYSA” value ([8]; 0.016 kg/ha) was 0 % inhibition and the “Herbicidal activity, ORYSA” value ([8]; 0.063 kg/ha) was 30 % inhibition. For the same molecule, the “Herbicidal activity, ORYSA” value ([8]; 1.000 kg/ha) was 80 % inhibition, the “Herbicidal activity, ORYSA” value ([8]; 1.250 kg/ha) was 30 % inhibition and the “Herbicidal activity, PANDI” value ([9]; 0.016 kg/ha) was 0 % inhibition. The “Herbicidal activity, PANDI” value ([9]; 0.063 kg/ha) was 80 % inhibition, the “Herbicidal activity, PANDI” value ([9]; 1.000 kg/ha) was 100 % inhibition and the “Herbicidal activity, PANDI” value ([9]; 1.250 kg/ha) was 100 % inhibition. For the same molecule, the “Herbicidal activity, SOLNI” value ([10]; 0.016 kg/ha) was 0 % inhibition, the “Herbicidal activity, SOLNI” value ([10]; 0.063 kg/ha) was 0 % inhibition and the “Herbicidal activity, SOLNI” value ([10]; 1.000 kg/ha) was 0 % inhibition. The “Herbicidal activity, SOLNI” value ([10]; 1.250 kg/ha) was 0 % inhibition, the “Herbicidal activity, SORBI” value ([11]; 0.016 kg/ha) was 0 % inhibition and the “Herbicidal activity, SORBI” value ([11]; 0.063 kg/ha) was 0 % inhibition. For the same molecule, the “Herbicidal activity, SORBI” value ([11]; 1.000 kg/ha) was 30 % inhibition, the “Herbicidal activity, SORBI” value ([11]; 1.250 kg/ha) was 0 % inhibition and the “Herbicidal activity, TRZAW” value ([12]; 0.016 kg/ha) was 0 % inhibition. The “Herbicidal activity, TRZAW” value ([12]; 0.063 kg/ha) was 0 % inhibition, the “Herbicidal activity, TRZAW” value ([12]; 1.000 kg/ha) was 60 % inhibition and the “Herbicidal activity, TRZAW” value ([12]; 1.250 kg/ha) was 20 % inhibition. The “Herbicidal activity, ZEAMX” value ([13]; 0.016 kg/ha) was 0 % inhibition, the “Herbicidal activity, ZEAMX” value ([13]; 0.063 kg/ha) was 0 % inhibition and the “Herbicidal activity, ZEAMX” value ([13]; 1.000 kg/ha) was 40 % inhibition. The “Herbicidal activity, ZEAMX” value ([13]; 1.250 kg/ha) was 0 % inhibition, the “Herbicidal activity, ABUTH” value ([14]; 0.016 kg/ha) was 0 % inhibition and the “Herbicidal activity, ABUTH” value ([14]; 0.063 kg/ha) was 0 % inhibition. For the same molecule, the “Herbicidal activity, ABUTH” value ([14]; 1.000 kg/ha) was 30 % inhibition, the “Herbicidal activity, ABUTH” value ([14]; 1.250 kg/ha) was 0 % inhibition and the “Herbicidal activity, AESIN” value ([15]; 0.016 kg/ha) was 0 % inhibition. For the same molecule, the “Herbicidal activity, AESIN” value ([15]; 0.063 kg/ha) was 0 % inhibition, the “Herbicidal activity, AESIN” value ([15]; 1.000 kg/ha) was 20 % inhibition and the “Herbicidal activity, AESIN” value ([15]; 1.250 kg/ha) was 0 % inhibition. For the same molecule, the “Herbicidal activity, BROJA” value ([16]; 0.016 kg/ha) was 0 % inhibition, the “Herbicidal activity, BROJA” value ([16]; 0.063 kg/ha) was 30 % inhibition and the “Herbicidal activity, BROJA” value ([16]; 1.000 kg/ha) was 100 % inhibition. The “Herbicidal activity, BROJA” value ([16]; 1.250 kg/ha) was 70 % inhibition, the “Herbicidal activity, DIGSA” value ([17]; 0.016 kg/ha) was 60 % inhibition and the “Herbicidal activity, DIGSA” value ([17]; 0.063 kg/ha) was 100 % inhibition. For the same molecule, the “Herbicidal activity, DIGSA” value ([17]; 1.000 kg/ha) was 100 % inhibition, the “Herbicidal activity, DIGSA” value ([17]; 1.250 kg/ha) was 100 % inhibition and the “Herbicidal activity, ECHOR” value ([18]; 0.016 kg/ha) was 70 % inhibition. The “Herbicidal activity, ECHOR” value ([18]; 0.063 kg/ha) was 100 % inhibition, the “Herbicidal activity, ECHOR” value ([18]; 1.000 kg/ha) was 100 % inhibition and the “Herbicidal activity, ECHOR” value ([18]; 1.250 kg/ha) was 100 % inhibition. The “Herbicidal activity, GLXMX” value ([19]; 0.016 kg/ha) was 0 % inhibition, the “Herbicidal activity, GLXMX” value ([19]; 0.063 kg/ha) was 0 % inhibition and the “Herbicidal activity, GLXMX” value ([19]; 1.000 kg/ha) was 60 % inhibition. For the same molecule, the “Herbicidal activity, GLXMX” value ([19]; 1.250 kg/ha) was 20 % inhibition, the “Herbicidal activity, GOSHI” value ([20]; 0.016 kg/ha) was 0 % inhibition and the “Herbicidal activity, GOSHI” value ([20]; 0.063 kg/ha) was 30 % inhibition. For the same molecule, the “Herbicidal activity, GOSHI” value ([20]; 1.000 kg/ha) was 50 % inhibition, the “Herbicidal activity, GOSHI” value ([20]; 1.250 kg/ha) was 40 % inhibition and the “Herbicidal activity, ORYSA” value ([21]; 0.016 kg/ha) was 0 % inhibition. The “Herbicidal activity, ORYSA” value ([21]; 0.063 kg/ha) was 30 % inhibition, the “Herbicidal activity, ORYSA” value ([21]; 1.000 kg/ha) was 100 % inhibition and the “Herbicidal activity, ORYSA” value ([21]; 1.250 kg/ha) was 70 % inhibition. The “Herbicidal activity, PANDI” value ([22]; 0.016 kg/ha) was 40 % inhibition, the “Herbicidal activity, PANDI” value ([22]; 0.063 kg/ha) was 100 % inhibition and the “Herbicidal activity, PANDI” value ([22]; 1.000 kg/ha) was 100 % inhibition. The “Herbicidal activity, PANDI” value ([22]; 1.250 kg/ha) was 100 % inhibition, the “Herbicidal activity, SOLNI” value ([23]; 0.016 kg/ha) was 0 % inhibition and the “Herbicidal activity, SOLNI” value ([23]; 0.063 kg/ha) was 0 % inhibition. The “Herbicidal activity, SOLNI” value ([23]; 1.000 kg/ha) was 30 % inhibition, the “Herbicidal activity, SOLNI” value ([23]; 1.250 kg/ha) was 0 % inhibition and the “Herbicidal activity, SORBI” value ([24]; 0.016 kg/ha) was 0 % inhibition. The “Herbicidal activity, SORBI” value ([24]; 0.063 kg/ha) was 30 % inhibition, the “Herbicidal activity, SORBI” value ([24]; 1.000 kg/ha) was 70 % inhibition and the “Herbicidal activity, SORBI” value ([24]; 1.250 kg/ha) was 50 % inhibition. The “Herbicidal activity, TRZAW” value ([25]; 0.016 kg/ha) was 0 % inhibition, the “Herbicidal activity, TRZAW” value ([25]; 0.063 kg/ha) was 30 % inhibition and the “Herbicidal activity, TRZAW” value ([25]; 1.000 kg/ha) was 100 % inhibition. The “Herbicidal activity, TRZAW” value ([25]; 1.250 kg/ha) was 50 % inhibition, the “Herbicidal activity, ZEAMX” value ([26]; 0.016 kg/ha) was 0 % inhibition and the “Herbicidal activity, ZEAMX” value ([26]; 0.063 kg/ha) was 60 % inhibition. For the same molecule, the “Herbicidal activity, ZEAMX” value ([26]; 1.000 kg/ha) was 100 % inhibition and the “Herbicidal activity, ZEAMX” value ([26]; 1.250 kg/ha) was 100 % inhibition.
